Numbers after ± are expanded uncertainties.
Tests used:
[1] = molar heat capacity at constant pressure; conditions: 101.33 kPa, Liquid, Vacuum adiabatic calorimetry
[2] = 101.33 kPa, Liquid; for viscosity: Capillary tube (Ostwald / Ubbelohde) method; for mass density: Speicific gravity balance
[3] = excess molar enthalpy (molar enthalpy of mixing); xn = mol fraction of the nth substance listed; conditions: 298.15 K; 101.33 kPa; Liquid; Flow calorimetry; x2 = 0

Compound: COP(=O)([O-])OC.Cn1cc[n+](C)c1 [1,3-dimethylimidazolium dimethylphosphate]
- molar heat capacity at constant pressure ([1]; 298.15 K): 282.83 ± 13 J/K/mol
- molar heat capacity at constant pressure ([1]; 303.15 K): 296.61 ± 13 J/K/mol
- molar heat capacity at constant pressure ([1]; 313.15 K): 310.83 ± 13 J/K/mol
- molar heat capacity at constant pressure ([1]; 323.15 K): 321.05 ± 13 J/K/mol
- viscosity ([2]; 298.15 K): 271.86 ± 8 mPa·s
- mass density ([2]; 298.15 K): 1258.7 ± 1.2 kg/m3
- viscosity ([2]; 303.15 K): 188.3 ± 4.5 mPa·s
- mass density ([2]; 303.15 K): 1255.9 ± 1.2 kg/m3
- viscosity ([2]; 308.15 K): 139.49 ± 2.6 mPa·s
- mass density ([2]; 308.15 K): 1253 ± 1.2 kg/m3
- viscosity ([2]; 313.15 K): 110.25 ± 1.6 mPa·s
- mass density ([2]; 313.15 K): 1249.1 ± 1.2 kg/m3
- viscosity ([2]; 318.15 K): 84.44 ± 0.88 mPa·s
- mass density ([2]; 318.15 K): 1245.2 ± 1.2 kg/m3
- viscosity ([2]; 323.15 K): 69.99 ± 0.59 mPa·s
- mass density ([2]; 323.15 K): 1241.5 ± 1.2 kg/m3

Compound: CCO [ethanol] + COP(=O)([O-])OC.Cn1cc[n+](C)c1
- excess molar enthalpy [3]: 0 ± 0.0086 kcal/mol

Compound: CO [methanol] + COP(=O)([O-])OC.Cn1cc[n+](C)c1
- excess molar enthalpy [3]: 0 ± 0.00526 kcal/mol

Compound: O [water] + COP(=O)([O-])OC.Cn1cc[n+](C)c1
- excess molar enthalpy [3]: 0 ± 0.055 kcal/mol

Reference: the NIST ThermoML archive (doi:10.1016/j.fluid.2010.07.005)
